Where no end group is shown, it is not given here.
How the values were obtained:
GABAA-receptor complex = assay: pharmacological profiling on convulsive and comatose models; parameters: species or system mice; conditions: mouse, in vivo
From the text: Particularly, the evaluation of the GABA-effecting component in the mechanism of action of the peptidic composition “Deltaran” based on FDSIP has been performed using the “pharmacological profiling” method in animals (mice). […] Also evidence has been found for a modulation of the barbiturate binding site of the GABA-benzodiazepine-ionophore-receptor complex by Deltaran and DSIP and data have been obtained concerning regulatory effect on chloride ionophore. The regulatory influences are probably realized via the peptide fragment of the GABA-benzodiazepine-ionophore-receptor complex (15).

[1] = tested on: lipids of various biological membranes (synaptosome, mitochondrial, erythrocyte and other); assay: peroxidation of lipids of biological membranes; assay type: biochemical; conditions: by modulation of the activity of antioxidant enzymes
From the text: The direct effect of the peptide on different cell membrane types was shown which may provide an additional normalizing cell functions effect. Particularly FDSIP may provide a stabilizing effect to the mitochondrial cell apparatus that also is capable of reducing cell damage by normalizing the cell respiration processes, which has been shown by us in experiments.

[2] = tested on: mitochondrial respiratory chain; assay: mitochondrial respiratory chain and oxidative phosphorylation on rat brain preparations; assay type: biochemical
From the text: DSIP and its related peptides play a unique role in the maintenance of the structural-metabolic homeostasis not only on the level of different organs and tissues but also on the sub-cellular level of the organism. […] Such a decrease of rigidity of biological membranes enables the normalization of membrane functions, that have been disturbed by manifestations of the metabolic syndrome, such as hypertonic disease, hyperinsulinemia, misbalance of the endocrinal system, aging, etc.

[3] = tested on: antioxidant systems of the liver, the brain and the blood; conditions: under normal and under stress conditions; cited from earlier work
[4] = tested on: plasma membranes of human blood cells (erythrocytes and thrombocytes) and synaptosomal membranes (mice brain); conditions: on the surface and internal non-polar region; cited from earlier work

With “WAGGDASGE [DSIP, endogenous nonapeptide, delta-sleep inducing peptide]” the “barbiturate binding site of the GABA-benzodiazepine-ionophore-receptor complex” value (GABAA-receptor complex) was “modulation”, the “action on the peroxidation of lipids of various biological membranes” value [1] was “inhibitory and preventive action” and the “efficacy of the oxidative phosphorylation” value [2] was “significant increase”. For the same sequence, the “capacity of the antioxidant systems of the liver, the brain and the blood” value [3] was “credibly increases” and the “mobility of structural membrane domains” value [4] was “increased mobility”.

— patent publication US20090098096A1, “AGENT FOR CORRECTING STRESS-INDUCING NEURO-MEDIATOR, NEURO-ENDOCRINE AND METABOLIC DISTURBANCES AND METHOD FOR PREVENTING AND TREATING CONCOMITANT PATHOLOGICAL CONDITIONS” (priority 2005, published 2009)
